Laboratory results from ChEMBL document CHEMBL3526122, “Identification of UDP-glucuronosyltransferases responsible for the glucuronidation of darexaban, an oral factor Xa inhibitor, in human liver and intestine” (Drug Metab Dispos, 2012).

Experiments:
[1] = molecular target: T1, UDP-glucuronosyltransferase 1A10 (Homo sapiens, UniProt Q9HAW8); experiment: Inhibition of human recombinant UGT1A10 after 10 mins in presence of UDPGA; assay type: ADME
T1 sequence (Q9HAW8 whole entry): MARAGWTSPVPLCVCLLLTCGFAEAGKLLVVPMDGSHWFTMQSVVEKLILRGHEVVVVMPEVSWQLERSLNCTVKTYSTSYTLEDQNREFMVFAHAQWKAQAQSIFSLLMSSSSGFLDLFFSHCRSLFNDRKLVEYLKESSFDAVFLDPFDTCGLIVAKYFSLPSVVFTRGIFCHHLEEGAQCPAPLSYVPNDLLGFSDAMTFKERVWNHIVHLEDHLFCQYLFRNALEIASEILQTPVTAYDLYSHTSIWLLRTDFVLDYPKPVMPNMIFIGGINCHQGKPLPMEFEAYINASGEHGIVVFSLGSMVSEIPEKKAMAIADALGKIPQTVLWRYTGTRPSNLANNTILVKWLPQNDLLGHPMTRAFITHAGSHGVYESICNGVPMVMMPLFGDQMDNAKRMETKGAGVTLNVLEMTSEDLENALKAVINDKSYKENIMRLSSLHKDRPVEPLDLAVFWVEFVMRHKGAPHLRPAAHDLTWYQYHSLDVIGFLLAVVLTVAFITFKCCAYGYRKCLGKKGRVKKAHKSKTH

[2] = Drug metabolism in human liver microsomes assessed as glucuronidation at 30 uM after 10 mins by LC-MS/MS analysis relative to vehicle-treated control in presence of propofol and UDPGA; assay type: ADME; settings: with propofol, read-out: Drug metabolism
[3] = Drug metabolism in human liver microsomes assessed as glucuronidation after 10 mins by Michaelis-Menten plot analysis in presence of UDPGA; assay type: ADME
[4] = molecular target: T2, UDP-glucuronosyltransferase 1A7 (Homo sapiens, UniProt Q9HAW7); experiment: Activity of human recombinant UGT1A7 expressed in baculovirus-infected insect cells assessed as enzyme-mediated glucuronidation per mg of protein after 10 mins in presence of UDPGA; assay type: ADME
T2 sequence (Q9HAW7 whole entry): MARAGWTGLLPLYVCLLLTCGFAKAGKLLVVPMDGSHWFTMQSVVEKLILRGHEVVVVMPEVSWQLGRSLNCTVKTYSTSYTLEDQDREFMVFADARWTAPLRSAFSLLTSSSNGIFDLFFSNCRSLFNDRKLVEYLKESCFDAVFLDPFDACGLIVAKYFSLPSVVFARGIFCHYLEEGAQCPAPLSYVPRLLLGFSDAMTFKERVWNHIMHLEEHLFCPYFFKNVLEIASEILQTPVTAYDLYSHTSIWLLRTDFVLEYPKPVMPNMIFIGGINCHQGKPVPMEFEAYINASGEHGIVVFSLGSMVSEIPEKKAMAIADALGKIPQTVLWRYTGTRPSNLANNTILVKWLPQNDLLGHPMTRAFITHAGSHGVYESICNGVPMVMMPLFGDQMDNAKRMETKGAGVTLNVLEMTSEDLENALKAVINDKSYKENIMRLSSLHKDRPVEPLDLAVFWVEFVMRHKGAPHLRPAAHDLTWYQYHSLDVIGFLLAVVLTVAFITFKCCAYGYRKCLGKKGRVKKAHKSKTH

[5] = molecular target: T3, UDP-glucuronosyltransferase 1A1 (Homo sapiens, UniProt P22309); experiment: Activity of human recombinant UGT1A1 expressed in baculovirus-infected insect cells assessed as enzyme-mediated glucuronidation per mg of protein after 10 mins in presence of UDPGA; assay type: ADME
T3 sequence (P22309 whole entry): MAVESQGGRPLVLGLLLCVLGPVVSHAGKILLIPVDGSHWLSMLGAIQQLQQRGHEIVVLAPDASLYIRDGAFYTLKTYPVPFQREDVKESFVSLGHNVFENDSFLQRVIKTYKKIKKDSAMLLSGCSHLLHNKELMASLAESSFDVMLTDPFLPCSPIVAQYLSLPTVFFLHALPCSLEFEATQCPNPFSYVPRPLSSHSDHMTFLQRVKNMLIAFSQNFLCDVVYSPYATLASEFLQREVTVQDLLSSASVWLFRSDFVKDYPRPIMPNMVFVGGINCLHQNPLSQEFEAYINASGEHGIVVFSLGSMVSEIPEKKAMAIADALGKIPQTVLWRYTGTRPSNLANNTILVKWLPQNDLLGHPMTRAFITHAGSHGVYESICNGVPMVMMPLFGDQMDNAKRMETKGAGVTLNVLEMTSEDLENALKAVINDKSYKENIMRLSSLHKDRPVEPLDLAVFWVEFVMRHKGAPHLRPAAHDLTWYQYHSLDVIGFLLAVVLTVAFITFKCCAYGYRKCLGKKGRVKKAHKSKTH

[6] = molecular target: T2, UDP-glucuronosyltransferase 1A7; experiment: Activity of human recombinant UGT1A7 expressed in baculovirus-infected insect cells assessed as intrinsic clearance for enzyme-mediated glucuronide formation per mg of protein at 1 to 250 uM after 10 mins by Michaelis-Menten plot analysis in presence of UDPGA; assay type: ADME
[7] = test system: Liver microsome; experiment: Unbound intrinsic clearance in human liver microsomes assessed per mg of protein after 10 mins in presence of UDPGA and 0.5% fatty acid free BSA; assay type: ADME
[8] = molecular target: T4, UDP-glucuronosyltransferase 1A9 (Homo sapiens, UniProt O60656); experiment: Activity of human recombinant UGT1A9 expressed in baculovirus-infected insect cells assessed as unbound intrinsic clearance for enzyme-mediated glucuronidation per mg of protein after 5 mins by Michaelis-Menten plot analysis in presence of UDPGA and 0.1% fatty acid free BSA; assay type: ADME
T4 sequence (O60656 whole entry): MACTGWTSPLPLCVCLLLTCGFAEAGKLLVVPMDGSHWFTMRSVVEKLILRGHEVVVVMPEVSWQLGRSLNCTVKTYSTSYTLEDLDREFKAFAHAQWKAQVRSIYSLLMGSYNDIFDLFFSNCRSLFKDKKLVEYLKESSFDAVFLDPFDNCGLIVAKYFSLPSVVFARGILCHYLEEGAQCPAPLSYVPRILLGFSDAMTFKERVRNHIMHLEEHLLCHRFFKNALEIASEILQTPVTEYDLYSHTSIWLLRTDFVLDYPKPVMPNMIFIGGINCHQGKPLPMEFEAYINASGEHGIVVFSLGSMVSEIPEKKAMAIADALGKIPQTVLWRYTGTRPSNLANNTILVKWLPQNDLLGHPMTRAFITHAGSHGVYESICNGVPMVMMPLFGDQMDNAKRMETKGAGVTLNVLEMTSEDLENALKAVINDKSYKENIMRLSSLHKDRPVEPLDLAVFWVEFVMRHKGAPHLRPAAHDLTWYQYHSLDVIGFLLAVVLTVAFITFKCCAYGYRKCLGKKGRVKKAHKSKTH

[9] = Drug metabolism in human intestinal microsomes assessed as glucuronidation after 10 mins by Michaelis-Menten plot; assay type: ADME, Intestine, Microsome
[10] = Drug metabolism in human liver microsomes assessed as glucuronidation at 30 uM after 5 mins by LC-MS/MS analysis relative to vehicle-treated control in presence of bilirubin and UDPGA; assay type: ADME; settings: with bilirubin, read-out: Drug metabolism
[11] = Fraction unbound in human liver microsomes at 1 to 250 uM after 10 mins by ultrafiltration method in presence of 2% fatty acid free BSA; assay type: ADME
[12] = Drug metabolism in human liver microsomes assessed as glucuronidation after 10 mins by Michaelis-Menten plot analysis in presence of UDPGA and 0.1% fatty acid free BSA; assay type: ADME; settings: read-out: Km(unbound)

Ki [1]: 235 µM
activity at 10 min, 30 µM [2]: 9%
Km at 10 min [3]: > 250 µM
Drug metabolism [4]: 0.251 nmol/min/mg
Drug metabolism [5]: < 0.01 nmol/min/mg
clearance [6]: 12.3 µL/min/mg
CL free [7]: 184 µL/min/mg
CL free [8]: 250 µL/min/mg
Km at 10 min [9]: 27.3 µM
activity at 5 min, 30 µM [10]: 59.9%
fraction unbound at 10 min, up to 250 µM [11]: 0.251
Km at 10 min [12]: 17.7 µM
Compound: COc1ccc(C(=O)Nc2cccc(O)c2NC(=O)c2ccc(N3CCCN(C)CC3)cc2)cc1.O=C(O)CCC(=O)O
